Several values for one entry are separate records, joined by “and”; a condition that tells them apart may be missing. Equal entries are not always repeated. Where two headings read alike, the source gives them in different places. Blank lines part the entries; values can stand above or below the compound they belong to.
Tests used:
[1] = test system: Human colon carcinoma DLD-1; assay: Growth of human tumor xenografts in the nude mouse model; conditions: for % T/C Day 7 / % T/C Day 14 / % T/C Day 21 / Relative tumor growth Day 7 / Relative tumor growth Day 14 / Relative tumor growth Day 21: DLD1, nude mouse
Procedure: Human colon carcinoma DLD-1 cells (American Type Culture Collection, Rockville, Md.) were grown in tissue culture in DMEM (Gibco/BRL, Gaithersburg, Md.) supplemented with 10% FBS (Gemini Bio-Products Inc., Calabasas, Calif.). Athymic nu/nu female mice (Charles River, Wilmington, Mass.) were injected subcutaneously (SC) in the flank area with 6×10^6 DLD-1 cells. When tumors attained a mass of between 75 and 100 mg, the mice were randomly assigned into treatment groups with 5 animals per group. Animals were treated orally (PO) once daily on days 1 through 20 post staging (day zero) with a dose range (50 to 100 mg/kg/dose) of compound prepared in 0.5% Methocel/0.5% Tween 80 or 0.5% Methocel/0.4% Tween 80 as the vehicle control. Tumor mass was determined every 7 days [(length×width^2)/2] for 21 days post-staging. Relative tumor growth (mean tumor mass on days 7, 14 and 21 divided by the mean tumor mass on day zero) was determined for each treatment group.

[2] = test system: Human umbilical vein endothelial cells (HUVEC); assay: HUVEC proliferation assay, VEGF-dependent growth ([3H]-thymidine incorporation); format: cell-based
Procedure: Cells were plated into 96-well dishes (4000 cells per well) and allowed to attach overnight. HUVEC were rinsed one time with 100 μl of EBMc-V (EBM supplemented with all above components except serum or VEGF), then 50 ul of EBMc-V was added to cells. Compounds were prepared at 200× stocks in DMSO, diluted into EBMc-V media as 4× stocks, then 50 ul added to appropriate wells. Finally, 100 μl of 2×VEGF (100 ng/ml prepared in EBMc-V; final 50 ng/ml VEGF) was added to all VEGF-treated wells. EBMc-V (no VEGF) was added to negative control wells. Parallel compound-treated plates were prepared except that 100 μl of EGM2 media containing 2% serum but lacking VEGF (EGMc-V) was added. Cells were incubated for 4-5 days at 37° C.
DNA synthesis was assessed by thymidine incorporation. Cells were incubated for 5 hours in 1 μCi of [^3H]-thymidine (PerkinElmer) by addition of 10 ul of 0.1 μCi/ul thymidine prepared in PBS to each well. After incubation, media was aspirated and the cells trypsinized and collected onto a mat using a vacuum-based Micro Cell Harvester (Skatron). [^3H]-thymidine was counted in a liquid scintillation counter. Compounds evaluated for ability to inhibit VEGF-dependent growth of human umbilical vein endothelial cells (HUVEC).

[3] = molecular target: T1, human KDR (VEGF-receptor-2) (Homo sapiens, UniProt P35968); assay: KDR kinase enzyme assay (DELFIA, KDR-IC-Flag, poly(Glu4-Tyr) peptide); format: biochemical; conditions: for inhibition at 1 µM: Concentration 1000 nM; for inhibition at 1 µM / inhibition at 0.1 µM: read-out: % Inhibition; for inhibition at 0.1 µM: Concentration 100 nM
T1 construct: beginning at Met-806; (5′-ATG GAT CCA GAT GM CTC CCA TTG) and ending at Val-1356; made in house

[4] = molecular target: KDR (Homo sapiens, UniProt P35968); assay: cell-based; conditions: for inhibition at 1 µM: read-out: % Inhibition of KDR kinase autophosphorylation in KDR15 cells, compound conc. 1000 nM; for IC50: IC50 (nM), inhibition of KDR kinase autophosphorylation in KDR15 cells, KDR15 cells, VEGF 50 ng/ml, phospho-KDR-Y996 immunoblot
[5] = molecular target: T1, human KDR (VEGF-receptor-2); assay: KDR kinase enzyme assay wash-out experiments (irreversible inhibition); format: biochemical
Procedure: To determine if compounds bound irreversibly to enzyme, plates were washed after the enzyme plus compound pre-incubation step and prior to the addition of ATP. Parallel plates were tested wherein one plate was processed exactly as above while a second plate was washed three times in 100 μl of 4 mM HEPES, pH 7.4, to remove unbound compound. 1× Kinase buffer (30 μl of 1 mM MnCl2, 4 mM HEPES, pH 7.4, 20 μM Na3VO4) and 20 μl of ATP/MgCl2 were added to the wash-out plate. Detection of phosphotyrosinylated peptide for both plates was performed as described above.
For each inhibitor shown in Table 2, two IC50 determinations are shown, one under normal conditions and the other where an intermediate wash-out step is carried out. […] If there was a large increase in the IC50 value in the wash-out experiment compared to the experiment where there was no wash-out, then it was determined that the compound was behaving as a conventional reversible binding inhibitor.

[6] = 50 mg/kg/dose PO, days 1 through 20
[7] = 100 mg/kg/dose PO, days 1 through 20
[8] = Homo sapiens, HUVEC, conc. 10000 nM
[9] = Table 6, dose not given, administered on days 1 through 20

T1 sequence (P35968 806-1356): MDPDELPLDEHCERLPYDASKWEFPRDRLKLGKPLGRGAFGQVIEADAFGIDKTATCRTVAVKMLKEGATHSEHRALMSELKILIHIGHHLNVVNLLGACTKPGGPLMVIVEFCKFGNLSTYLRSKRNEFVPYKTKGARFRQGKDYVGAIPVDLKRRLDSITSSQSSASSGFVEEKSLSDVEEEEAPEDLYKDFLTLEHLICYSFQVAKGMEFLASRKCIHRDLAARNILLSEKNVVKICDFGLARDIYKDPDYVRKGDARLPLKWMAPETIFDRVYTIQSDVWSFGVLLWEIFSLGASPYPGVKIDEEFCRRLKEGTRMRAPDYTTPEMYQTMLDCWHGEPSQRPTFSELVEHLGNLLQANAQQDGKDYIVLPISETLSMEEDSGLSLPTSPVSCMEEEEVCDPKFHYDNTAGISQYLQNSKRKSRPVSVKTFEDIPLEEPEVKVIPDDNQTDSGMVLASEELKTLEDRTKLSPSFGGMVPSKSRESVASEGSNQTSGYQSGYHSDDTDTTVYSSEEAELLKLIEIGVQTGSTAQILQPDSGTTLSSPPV
Sequence of KDR (P35968 20-1356): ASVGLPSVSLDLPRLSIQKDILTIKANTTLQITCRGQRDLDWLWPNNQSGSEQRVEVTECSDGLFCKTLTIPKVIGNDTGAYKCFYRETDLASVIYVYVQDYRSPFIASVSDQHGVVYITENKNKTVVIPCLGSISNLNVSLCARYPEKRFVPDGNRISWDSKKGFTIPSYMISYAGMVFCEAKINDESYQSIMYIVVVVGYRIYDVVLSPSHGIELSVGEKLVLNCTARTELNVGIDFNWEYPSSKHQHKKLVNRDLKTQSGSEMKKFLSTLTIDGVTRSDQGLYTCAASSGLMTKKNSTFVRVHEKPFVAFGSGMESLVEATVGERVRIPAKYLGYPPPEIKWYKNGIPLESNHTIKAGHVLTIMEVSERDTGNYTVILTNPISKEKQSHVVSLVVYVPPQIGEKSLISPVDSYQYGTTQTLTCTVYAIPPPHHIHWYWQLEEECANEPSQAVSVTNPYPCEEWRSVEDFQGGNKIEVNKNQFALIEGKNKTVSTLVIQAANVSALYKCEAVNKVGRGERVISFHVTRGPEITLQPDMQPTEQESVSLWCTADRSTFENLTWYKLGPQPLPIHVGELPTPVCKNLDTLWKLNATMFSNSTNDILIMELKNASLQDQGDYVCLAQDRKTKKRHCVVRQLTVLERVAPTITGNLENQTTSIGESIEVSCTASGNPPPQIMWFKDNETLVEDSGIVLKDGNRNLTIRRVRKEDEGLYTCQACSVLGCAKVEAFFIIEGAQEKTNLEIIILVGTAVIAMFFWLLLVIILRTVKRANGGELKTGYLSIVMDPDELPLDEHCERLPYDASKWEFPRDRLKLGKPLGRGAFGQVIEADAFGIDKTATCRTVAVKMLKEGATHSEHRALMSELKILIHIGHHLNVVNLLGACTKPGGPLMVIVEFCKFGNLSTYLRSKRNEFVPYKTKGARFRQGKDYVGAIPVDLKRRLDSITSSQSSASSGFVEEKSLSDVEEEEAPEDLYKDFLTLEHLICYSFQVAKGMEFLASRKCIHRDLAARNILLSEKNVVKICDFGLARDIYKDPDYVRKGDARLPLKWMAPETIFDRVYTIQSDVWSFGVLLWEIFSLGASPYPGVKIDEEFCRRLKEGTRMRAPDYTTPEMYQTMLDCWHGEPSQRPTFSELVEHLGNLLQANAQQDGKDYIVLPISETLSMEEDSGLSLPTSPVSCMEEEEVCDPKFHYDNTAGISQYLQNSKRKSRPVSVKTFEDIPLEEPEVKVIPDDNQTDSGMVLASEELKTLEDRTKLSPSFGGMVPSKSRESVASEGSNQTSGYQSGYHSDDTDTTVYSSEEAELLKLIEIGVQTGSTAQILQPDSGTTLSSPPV

melting point: 177 to 180 °C
SMILES: COCCOc1cc2ncnc(NC3=CC(=O)C(Oc4ccccc4)=CC3=O)c2cc1OC

melting point: 211 to 212 °C
SMILES: COCCOC1=CC(=O)C(Nc2ncnc3cc(OCCOC)c(OC)cc23)=CC1=O

SMILES: COCCOc1cc2ncnc(NC3=CC(=O)C(Oc4ccc(-n5ccnc5)cc4)=CC3=O)c2cc1OC [Example 26, 2-[4-(1H-imidazol-1-yl)phenoxy]-5-{[6-methoxy-7-(2-methoxyethoxy)quinazolin-4-yl]amino}benzo-1,4-quinone]
S/T = # of Survivors/# of Treated on Day +21 post tumor staging [1, 6]: 5/5
% T/C Day 7 [1, 6]: 84%
% T/C Day 14 [1, 6]: 62%
% T/C Day 21 [1, 6]: 61%
Relative tumor growth Day 7 [1, 6]: 4.21
Relative tumor growth Day 14 [1, 6]: 6.93
Relative tumor growth Day 21 [1, 6]: 10.50
S/T = # of Survivors/# of Treated on Day +21 post tumor staging [1, 7]: 5/5
% T/C Day 7 [1, 7]: 67%
% T/C Day 14 [1, 7]: 55%
% T/C Day 21 [1, 7]: 51%
Relative tumor growth Day 7 [1, 7]: 3.36
Relative tumor growth Day 14 [1, 7]: 6.10
Relative tumor growth Day 21 [1, 7]: 8.80
inhibition at 10 µM [2, 8]: 89%
% Inhibition of VEGF-dependent growth of HUVEC ([2]; conc. 10000 nM): 96% and 99% and 95% and 87% and 91%

inhibition at 1 µM ([3]; ATP conc. 10 μM): 88%
inhibition at 1 µM ([3]; ATP conc. 1000 μM): 82%
inhibition at 1 µM [4]: 4%
melting point: 249 to 250 °C
SMILES: COc1cc2ncnc(NC3=CC(=O)C(N4CCOCC4)=CC3=O)c2cc1OC [Example 84, 2-[(6,7-dimethoxyquinazolin-4-yl)amino]-5-morpholin-4-ylbenzo-1,4-quinone]

inhibition at 0.1 µM ([3]; ATP conc. 10 μM): 20%
inhibition at 1 µM ([3]; ATP conc. 10 μM): 62%
inhibition at 1 µM ([3]; ATP conc. 1000 μM): 64%
melting point: 204 to 206 °C
SMILES: COc1cc2ncnc(NC3=CC(=O)C(N(C)c4ccccc4)=CC3=O)c2cc1OC [Example 85, 2-[(6,7-dimethoxyquinazolin-4-yl)amino]-5-[methyl(phenyl)amino]benzo-1,4-quinone]

IC50 ([3]; ATP conc. 10 μM): 40.7 nM
inhibition at 0.1 µM ([3]; ATP conc. 10 μM): 58%
inhibition at 1 µM ([3]; ATP conc. 10 μM): 93%
inhibition at 1 µM ([3]; ATP conc. 1000 μM): 96%
melting point: 258 to 261 °C
IC50 ([5]; no wash): 40.7 nM
IC50 ([5]; wash out): 57.1 nM
SMILES: COc1cc2ncnc(NC3=CC(=O)C(Nc4ccccc4)=CC3=O)c2cc1OC [Example 86, 2-anilino-5-[(6,7-dimethoxyquinazolin-4-yl)amino]benzo-1,4-quinone]

inhibition at 0.1 µM ([3]; ATP conc. 10 μM): 19%
inhibition at 1 µM ([3]; ATP conc. 10 μM): 72%
inhibition at 1 µM ([3]; ATP conc. 1000 μM): 85%
melting point: 226 to 227 °C
SMILES: COc1cc2ncnc(NC3=CC(=O)C(N4CCCCC4)=CC3=O)c2cc1OC [Example 87, 2-[(6,7-dimethoxyquinazolin-4-yl)amino]-5-piperidin-1-ylbenzo-1,4-quinone]

inhibition at 0.1 µM ([3]; ATP conc. 10 μM): 28%
inhibition at 1 µM ([3]; ATP conc. 10 μM): 63%
inhibition at 1 µM ([3]; ATP conc. 1000 μM): 48%
inhibition at 1 µM [4]: 32%
melting point: 245 to 250 °C
SMILES: COc1cc2ncnc(NC3=CC(=O)C(N(C)C)=CC3=O)c2cc1OC [Example 88, 2-[(6,7-dimethoxyquinazolin-4-yl)amino]-5-(dimethylamino)benzo-1,4-quinone]

inhibition at 0.1 µM ([3]; ATP conc. 10 μM): 11%
inhibition at 1 µM ([3]; ATP conc. 10 μM): 18%
inhibition at 1 µM ([3]; ATP conc. 1000 μM): -12%
melting point: 283 to 285 °C
SMILES: CNC1=CC(=O)C(Nc2ncnc3cc(OC)c(OC)cc23)=CC1=O [Example 89, 2-[(6,7-dimethoxyquinazolin-4-yl)amino]-5-(methylamino)benzo-1,4-quinone]

inhibition at 0.1 µM ([3]; ATP conc. 10 μM): 92%
inhibition at 1 µM ([3]; ATP conc. 10 μM): 93%
inhibition at 1 µM ([3]; ATP conc. 1000 μM): 97%
melting point: 171 to 172 °C
SMILES: COCCOc1cc2ncnc(NC3=CC(=O)C(Oc4ccc(C)cc4)=CC3=O)c2cc1OC [Example 92, 2-{[6-methoxy-7-(2-methoxyethoxy)quinazolin-4-yl]amino}-5-(4-methylphenoxy)benzo-1,4-quinone]

IC50 ([3]; ATP conc. 10 μM): 3.7 nM
inhibition at 0.1 µM ([3]; ATP conc. 10 μM): 85%
inhibition at 1 µM ([3]; ATP conc. 10 μM): 96%
inhibition at 1 µM ([3]; ATP conc. 1000 μM): 98%
melting point: 228 to 234 °C
IC50 ([5]; no wash): 4.2 nM
IC50 ([5]; wash out): 6.5 nM
SMILES: COc1cc2ncnc(NC3=CC(=O)C(Oc4ccccc4)=CC3=O)c2cc1OC [Example 95, 2-[(6,7-dimethoxyquinazolin-4-yl)amino]-5-phenoxybenzo-1,4-quinone]

melting point: 252 to 253 °C
SMILES: COc1cc2ncnc(NC3=CC(=O)C4(c5ccccc5)OC4C3=O)c2cc1OC (stereo not drawn) [Example 100, 4-[(6,7-dimethoxyquinazolin-4-yl)amino]-1-phenyl-7-oxabicyclo[4.1.0]hept-3-ene-2,5-dione]

SMILES: COCCOc1cc2ncnc(NC3=CC(=O)C(N4CCCCC4)=CC3=O)c2cc1OC [Example 101, 2-{[6-methoxy-7-(2-methoxyethoxy)quinazolin-4-yl]amino}-5-piperidin-1-yl-benzo-1,4-quinone]
melting point: 197 to 200 °C
inhibition at 0.1 µM ([2]; Homo sapiens, HUVEC, conc. 100 nM): 12%
inhibition at 1 µM ([2]; Homo sapiens, HUVEC, conc. 1000 nM): 36%
inhibition at 10 µM [2, 8]: 94%

melting point: 188 to 190 °C
SMILES: COc1cc2ncnc(NC3=CC(=O)C4(C(C)C)OC4C3=O)c2cc1OC (stereo not drawn) [Example 107, 4-[(6,7-dimethoxy-4-quinazolinyl)amino]-1-isopropyl-7-oxabicyclo[4.1.0]hept-3-ene-2,5-dione]

SMILES: COCCOc1cc2ncnc(NC3=CC(=O)C(N4CCCC4C(F)(F)F)=CC3=O)c2cc1OC (stereo not drawn) [Example 150, 2-{[6-methoxy-7-(2-methoxyethoxy)quinazolin-4-yl]amino}-5-[2-(trifluoromethyl)pyrrolidin-1-yl]benzo-1,4-quinone]
% T/C Day 7 [1, 9]: 63%
% T/C Day 14 [1, 9]: 82%
% T/C Day 21 [1, 9]: 88%
Relative tumor growth Day 7 [1, 9]: 1.62
Relative tumor growth Day 14 [1, 9]: 6.45
Relative tumor growth Day 21 [1, 9]: 12.54

SMILES: COCCOc1cc2ncnc(NC3=C(SC)C(=O)C(Cl)=C(OC)C3=O)c2cc1OC [Example 190, 2-chloro-3-methoxy-5-{[6-methoxy-7-(2-methoxyethoxy)quinazolin-4-yl]amino}-6-(methylthio)benzo-1,4-quinone]
% T/C Day 7 [1, 9]: 61%
% T/C Day 14 [1, 9]: 94%
% T/C Day 21 [1, 9]: 76%
Relative tumor growth Day 7 [1, 9]: 1.58
Relative tumor growth Day 14 [1, 9]: 7.41
Relative tumor growth Day 21 [1, 9]: 10.74

IC50 [4]: 236 to 400 nM
IC50 ([5]; no wash): 4.7 nM
IC50 ([5]; wash out): 16.9 nM
SMILES: COCCOc1cc2ncnc(NC3=CC(=O)C(OCC4CC4)=CC3=O)c2cc1OC [Example 213, 2-(cyclopropylmethoxy)-5-{[6-methoxy-7-(2-methoxyethoxy)quinazolin-4-yl]amino}benzo-1,4-quinone]

IC50 [4]: 175 to 210 nM
IC50 ([5]; no wash): 78.6 nM
IC50 ([5]; wash out): 128 nM
SMILES: COCCOc1cc2ncnc(NC3=CC(=O)C(OCCN(C)c4ccccc4)=CC3=O)c2cc1OC [Example 222, 2-{[6-methoxy-7-(2-methoxyethoxy)quinazolin-4-yl]amino}-5-{2-[methyl(phenyl)amino]ethoxy}benzo-1,4-quinone]

melting point: 200 to 210 °C
SMILES: COCCOc1cc2ncnc(NC3=CC(=O)C(Br)=CC3=O)c2cc1OC [Example 231, 2-bromo-5-{[6-methoxy-7-(2-methoxyethoxy)quinazolin-4-yl]amino}benzo-1,4-quinone]

melting point: 109 to 115 °C
SMILES: COCCOc1cc2ncnc(NC3=CC(=O)C(Oc4ccc(-n5ccnc5)cc4)=CC3=O)c2cc1OCCOC [Example 341, 2-{[6,7-bis(2-methoxyethoxy)quinazolin-4-yl]amino}-5-[4-(1H-imidazol-1-yl)phenoxy]benzo-1,4-quinone]

melting point: 215 to 220 °C
SMILES: COc1cc2c(NC3=CC(=O)C(Cl)=CC3=O)ncnc2cc1OCC1CCCCO1 (stereo not drawn) [Example 345, 2-chloro-5-{[6-methoxy-7-(tetrahydro-2H-pyran-2-ylmethoxy)quinazolin-4-yl]amino}benzo-1,4-quinone]

— patent US20070299092A1 (Wyeth, priority 2004, published 2007)
